# Tests used:
# [1] = target: AHAS W574L (Arabidopsis thaliana, UniProt P17597, E575Q/W574L); assay type: biochemical
# Procedure: (§1) Bacteria are grown at 37° C. in LB-medium containing 100 mg/l carbenicillin and 25 mg/l canamycin, induced with 1 mM isopropyl-β-D-thiogalactopyranoside at an OD600 of 0.6, cultivated for 16 hours at 18° C. and harvested by, e.g., centrifugation. Bacterial pellets are resuspended in 100 mM sodium phosphate buffer pH 7.0 containing 0.1 mM thiamine-pyrophosphate, 1 mM MgCl2, and 1 μM FAD at a concentration of 1 gram wet weight per 25 ml of buffer and disrupted by, e.g., sonification. The crude protein extract obtained after centrifugation is used for ALS activity measurements.
# (§2) ALS protein can be extracted from leaves or tissue cultures, such as B. napus or B. juncea leaves, or B. napus or B. juncea tissue cultures as described by Ray (Plant Physiol, 1984, 75:827-831). An ALS assays can be carried out in 96-well microtiter plates using a modification of the procedure described by Ray (1984): The reaction mixture contains 20 mM potassium phosphate buffer pH 7.0, 20 mM sodium pyruvate, 0.45 mM thiamine-pyrophosphate, 0.45 mM MgCl2, 9 μM FAD. ALS enzyme and various concentrations of ALS inhibitors can be mixed in a final volume of 90 μl Assays can be initiated by adding enzyme and the assays can be terminated after 75 min incubation at 30° C. by the addition of 40 μl 0.5 M H2SO4.
# [2] = target: AHAS P197S (Arabidopsis thaliana, UniProt P17597, E575Q/P197S); assay type: biochemical
# Procedure: as §1, §2
# [3] = target: AHAS P197S-W574L (Arabidopsis thaliana, UniProt P17597, E575Q/P197S/W574L); experiment: biochemical
# Sequence of AHAS P197S-W574L (P17597 56-670 P197S/W574L/E575Q): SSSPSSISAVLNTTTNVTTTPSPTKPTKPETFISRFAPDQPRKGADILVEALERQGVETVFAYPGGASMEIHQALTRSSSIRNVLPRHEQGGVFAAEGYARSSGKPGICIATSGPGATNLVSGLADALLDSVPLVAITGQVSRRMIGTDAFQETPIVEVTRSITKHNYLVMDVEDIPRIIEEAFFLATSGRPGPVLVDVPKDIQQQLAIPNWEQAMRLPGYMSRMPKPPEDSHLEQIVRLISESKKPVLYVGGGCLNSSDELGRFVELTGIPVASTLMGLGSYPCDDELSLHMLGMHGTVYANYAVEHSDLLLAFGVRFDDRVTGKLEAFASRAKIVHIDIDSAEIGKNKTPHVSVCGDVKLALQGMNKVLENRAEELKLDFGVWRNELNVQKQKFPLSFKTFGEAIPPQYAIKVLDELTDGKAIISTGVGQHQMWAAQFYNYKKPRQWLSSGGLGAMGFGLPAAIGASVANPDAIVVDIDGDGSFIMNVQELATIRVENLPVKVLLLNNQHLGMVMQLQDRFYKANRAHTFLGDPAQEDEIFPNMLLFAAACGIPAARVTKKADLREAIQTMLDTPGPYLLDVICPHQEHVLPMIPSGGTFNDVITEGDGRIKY
# Procedure: as §1, §2
# [4] = target: AHAS D376E (Arabidopsis thaliana, UniProt P17597, D376E/E575Q); experiment: biochemical
# Procedure: as §1, §2
# [5] = target: AHAS D376E-W574L (Arabidopsis thaliana, UniProt P17597, D376E/E575Q/W574L); experiment: biochemical
# Sequence of AHAS D376E-W574L (P17597 56-670 D376E/W574L/E575Q): as the sequence (P17597 56-670 P197S/W574L/E575Q) above, with S142P, D321E counted along it
# Procedure: as §1, §2
# [6] = target: AHAS WT (Arabidopsis thaliana, UniProt P17597); experiment: biochemical
# Sequence of AHAS WT (Arabidopsis thaliana, UniProt P17597) (P17597 56-670 E575Q): as the sequence (P17597 56-670 P197S/W574L/E575Q) above, with S142P, L519W counted along it
# Procedure: as §1, §2
# [7] = target: AHAS P197S-D376E (Arabidopsis thaliana, UniProt P17597, D376E/E575Q/P197S); experiment: biochemical
# Sequence of AHAS P197S-D376E (P17597 56-670 P197S/D376E/E575Q): as the sequence (P17597 56-670 P197S/W574L/E575Q) above, with D321E, L519W counted along it
# Procedure: as §1, §2
# [8] = target: AHAS P197S-D376E-W574L (Arabidopsis thaliana, UniProt P17597, D376E/E575Q/P197S/W574L); experiment: biochemical
# Sequence of AHAS P197S-D376E-W574L (P17597 56-670 P197S/D376E/W574L/E575Q): as the sequence (P17597 56-670 P197S/W574L/E575Q) above, with D321E counted along it
# Procedure: as §1, §2
# [9] = target: AHAS WT (Arabidopsis thaliana, UniProt P17597, E575Q); experiment: biochemical; details: AHAS WT
# Sequence of AHAS WT (Arabidopsis thaliana, UniProt P17597, E575Q) (P17597 56-670 E575Q): as the sequence (P17597 56-670 P197S/W574L/E575Q) above, with S142P, L519W counted along it
# Procedure: as §1, §2
# [10] = tested on: AHAS enzymatic activity; experiment: Kinetic parameters of enzymatic activity of AHAS mutants; assay type: biochemical
# Procedure: The ALS inhibitor sensitivity and kinetic parameters of AHAS proteins comprising the P197S mutation, the W574L mutation, the D376E mutation, and combinations thereof in one protein, were determined essentially as described in WO 2013/127766.
molecule,measurement,setting,value
"COc1cc(OC)nc(NC(=O)NS(=O)(=O)c2ncccc2C(=O)N(C)C)n1 [Nicosulfuron, nicosulfuron]",Resistance Factor,[1],>607
same,Resistance Factor,[2],6
same,IC50,[3],> 100 µM
same,Resistance Factor,[3]; AHAS P197S-W574L,>607
same,IC50,[4],> 100 µM
same,Resistance Factor,[4]; AHAS D376E,>607
same,IC50,[5],> 100 µM
same,Resistance Factor,[5]; AHAS D376E-W574L,>607
same,IC50,[6],0.158 µM
same,IC50,[7],> 100 µM
same,Resistance Factor,[7]; AHAS P197S-D376E,>607
same,IC50,[8],> 100 µM
same,Resistance Factor,[8]; AHAS P197S-D376E-W574L,>607
"CCS(=O)(=O)c1nc2ccccn2c1S(=O)(=O)NC(=O)Nc1nc(OC)cc(OC)n1 [Sulfosulfuron, sulfosulfuron]",Resistance Factor,[1],>4641
same,Resistance Factor,[2],1848
same,IC50,[3],> 100 µM
same,Resistance Factor,[3]; AHAS P197S-W574L,>4641
same,IC50,[4],25.1 µM
same,Resistance Factor,[4]; AHAS D376E,1166
same,IC50,[5],> 100 µM
same,Resistance Factor,[5]; AHAS D376E-W574L,>4641
same,IC50,[6],0.02 µM
same,IC50,[7],> 100 µM
same,Resistance Factor,[7]; AHAS P197S-D376E,>4641
same,IC50,[8],> 100 µM
same,Resistance Factor,[8]; AHAS P197S-D376E-W574L,>4641
"CCS(=O)(=O)c1cccnc1S(=O)(=O)NC(=O)Nc1nc(OC)cc(OC)n1 [Rimsulfuron, rimsulfuron]",Resistance Factor,[1],447
same,Resistance Factor,[2],18
same,IC50,[3],> 100 µM
same,Resistance Factor,[3]; AHAS P197S-W574L,>4466
same,IC50,[4],1.26 µM
same,Resistance Factor,[4]; AHAS D376E,56
same,IC50,[5],> 100 µM
same,Resistance Factor,[5]; AHAS D376E-W574L,>4466
same,IC50,[6],0.02 µM
same,IC50,[7],> 100 µM
same,Resistance Factor,[7]; AHAS P197S-D376E,>4466
same,IC50,[8],> 100 µM
same,Resistance Factor,[8]; AHAS P197S-D376E-W574L,>4466
"COc1ncc(F)c2nc(S(=O)(=O)Nc3c(F)cccc3F)nn12 [Florasulam, florasulam]",Resistance Factor,[1],1738
same,pI50,[1],4.6
same,Resistance Factor,[2],28
same,pI50,[2],6.4
same,Resistance Factor,[3]; AHAS P197S-W574L,>6918
same,pI50,[3]; AHAS P197S-W574L,<4
same,Resistance Factor,[4]; AHAS D376E,55
same,pI50,[4]; AHAS D376E,6.1
same,Resistance Factor,[5]; AHAS D376E-W574L,>6918
same,pI50,[5]; AHAS D376E-W574L,<4
same,pI50,[9],7.8
same,Resistance Factor,[7]; AHAS P197S-D376E,2754
same,pI50,[7]; AHAS P197S-D376E,4.4
same,Resistance Factor,[8]; AHAS P197S-D376E-W574L,>6918
same,pI50,[8]; AHAS P197S-D376E-W574L,<4
"D376E: AHAS protein with glutamic acid instead of aspartic acid at position 376 of SEQ ID NO: 10 (protein, listed as Arabidopsis thaliana) MAAATTTTTTSSSISFSTKPSPSSSKSPLPISRFSLPFSLNPNKSSSSSRRRGIKSSSPSSISAVLNTTTNVTTTPSPTKPTKPETFISRFAPDQPRKGADILVEALERQGVETVFAYPGGASMEIHQALTRSSSIRNVLPRHEQGGVFAAEGYARSSGKPGICIATSGPGATNLVSGLADALLDSVPLVAITGQVPRRMIGTDAFQETPIVEVTRSITKHNYLVMDVEDIPRIIEEAFFLATSGRPGPVLVDVPKDIQQQLAIPNWEQAMRLPGYMSRMPKPPEDSHLEQIVRLISESKKPVLYVGGGCLNSSDELGRFVELTGIPVASTLMGLGSYPCDDELSLHMLGMHGTVYANYAVEHSDLLLAFGVRFDERVTGKLEAFASRAKIVHIDIDSAEIGKNKTPHVSVCGDVKLALQGMNKVLENRAEELKLDFGVWRNELNVQKQKFPLSFKTFGEAIPPQYAIKVLDELTDGKAIISTGVGQHQMWAAQFYNYKKPRQWLSSGGLGAMGFGLPAAIGASVANPDAIVVDIDGDGSFIMNVQELATIRVENLPVKVLLLNNQHLGMVMQWQDRFYKANRAHTFLGDPAQEDEIFPNMLLFAAACGIPAARVTKKADLREAIQTMLDTPGPYLLDVICPHQEHVLPMIPSGGTFNDVITEGDGRIKY",Km,[10],1.4 mM
same,Vmax,[10],103.0 deltaOD550/min mg protein
same,relative Vmax,[10],2.7
"P197S: AHAS protein with serine instead of proline at position 197 of SEQ ID NO: 10 (protein, listed as Arabidopsis thaliana) MAAATTTTTTSSSISFSTKPSPSSSKSPLPISRFSLPFSLNPNKSSSSSRRRGIKSSSPSSISAVLNTTTNVTTTPSPTKPTKPETFISRFAPDQPRKGADILVEALERQGVETVFAYPGGASMEIHQALTRSSSIRNVLPRHEQGGVFAAEGYARSSGKPGICIATSGPGATNLVSGLADALLDSVPLVAITGQVSRRMIGTDAFQETPIVEVTRSITKHNYLVMDVEDIPRIIEEAFFLATSGRPGPVLVDVPKDIQQQLAIPNWEQAMRLPGYMSRMPKPPEDSHLEQIVRLISESKKPVLYVGGGCLNSSDELGRFVELTGIPVASTLMGLGSYPCDDELSLHMLGMHGTVYANYAVEHSDLLLAFGVRFDDRVTGKLEAFASRAKIVHIDIDSAEIGKNKTPHVSVCGDVKLALQGMNKVLENRAEELKLDFGVWRNELNVQKQKFPLSFKTFGEAIPPQYAIKVLDELTDGKAIISTGVGQHQMWAAQFYNYKKPRQWLSSGGLGAMGFGLPAAIGASVANPDAIVVDIDGDGSFIMNVQELATIRVENLPVKVLLLNNQHLGMVMQWQDRFYKANRAHTFLGDPAQEDEIFPNMLLFAAACGIPAARVTKKADLREAIQTMLDTPGPYLLDVICPHQEHVLPMIPSGGTFNDVITEGDGRIKY",Km,[10],5.5 mM
same,Vmax,[10],50.0 deltaOD550/min mg protein
same,relative Vmax,[10],1.3
"W574L: AHAS protein with leucine instead of tryptophan at position 574 of SEQ ID NO: 10 (protein, listed as Arabidopsis thaliana) MAAATTTTTTSSSISFSTKPSPSSSKSPLPISRFSLPFSLNPNKSSSSSRRRGIKSSSPSSISAVLNTTTNVTTTPSPTKPTKPETFISRFAPDQPRKGADILVEALERQGVETVFAYPGGASMEIHQALTRSSSIRNVLPRHEQGGVFAAEGYARSSGKPGICIATSGPGATNLVSGLADALLDSVPLVAITGQVPRRMIGTDAFQETPIVEVTRSITKHNYLVMDVEDIPRIIEEAFFLATSGRPGPVLVDVPKDIQQQLAIPNWEQAMRLPGYMSRMPKPPEDSHLEQIVRLISESKKPVLYVGGGCLNSSDELGRFVELTGIPVASTLMGLGSYPCDDELSLHMLGMHGTVYANYAVEHSDLLLAFGVRFDDRVTGKLEAFASRAKIVHIDIDSAEIGKNKTPHVSVCGDVKLALQGMNKVLENRAEELKLDFGVWRNELNVQKQKFPLSFKTFGEAIPPQYAIKVLDELTDGKAIISTGVGQHQMWAAQFYNYKKPRQWLSSGGLGAMGFGLPAAIGASVANPDAIVVDIDGDGSFIMNVQELATIRVENLPVKVLLLNNQHLGMVMQLQDRFYKANRAHTFLGDPAQEDEIFPNMLLFAAACGIPAARVTKKADLREAIQTMLDTPGPYLLDVICPHQEHVLPMIPSGGTFNDVITEGDGRIKY",Km,[10],7 mM
same,Vmax,[10],54.4 deltaOD550/min mg protein
same,relative Vmax,[10],1.4

# — patent US20160298129A1, “ALS INHIBITOR HERBICIDE TOLERANT MUTANT PLANTS” (BAYER CROPSCIENCE NV, priority 2013, published 2016)
